Measurements taken from the NIST ThermoML archive (doi:10.1021/acs.jced.8b00399).

Experiment: mn = molality of the nth substance listed, in mol/kg
Conditions: 99.6 kPa, Liquid; for mass density: Vibrating tube method; for viscosity: Capillary tube (Ostwald / Ubbelohde) method

CNC(C)=O [N-methylacetamide] + [Cl-].[Cl-].[Zn+2]
Conditions | mass density, 318.15 K [kg/m3] | mass density, 323.15 K [kg/m3] | mass density, 328.15 K [kg/m3] | viscosity, 323.15 K [mPa·s] | viscosity, 328.15 K [mPa·s]
m2 = 0 | 937.59 | 933.36 | 929.17 | 2.496 | 2.245
m2 = 0.01212 | 938.78 | 934.4 | 930.23 | 2.512 | 2.26
m2 = 0.02085 | 939.63 | 935.24 | 931.05 | 2.528 | 2.271
m2 = 0.04092 | 941.06 | 936.82 | 932.75 | 2.558 | 2.296
m2 = 0.04735 | 941.77 | 937.56 | 933.2 | 2.566 | 2.304
m2 = 0.05898 | 942.72 | 938.63 | 934.26 | 2.584 | 2.319
m2 = 0.06108 | 942.96 | 938.78 | 934.52 | 2.586 | 2.322
m2 = 0.07786 | 944.45 | 940.25 | 935.97 | 2.612 | 2.344
m2 = 0.09351 | 945.73 | 941.52 | 937.33 | 2.635 | 2.364
m2 = 0.1025 | 946.63 | 942.41 | 938.12 | 2.652 | 2.378
m2 = 0.1083 | 947.14 | 942.93 | 938.6 | 2.659 | 2.384
m2 = 0.1702 | 952.84 | 948.64 | 944.4 | 2.765 | 2.475
m2 = 0.2236 | 957.61 | 953.37 | 949.14 | 2.854 | 2.553
m2 = 0.372 | 970.87 | 966.57 | 962.36 | 3.132 | 2.795
m2 = 0.6919 | 999.23 | 994.92 | 990.69 | 3.82 | 3.381
m2 = 1.299 | 1052 | 1047.7 | 1043.43 | 5.603 | 4.9
